In paper PMC3415135 (Evidence-based Complementary and Alternative Medicine : eCAM, 2012):
pIC50: −log10 of the molar value. Values after ≈ are worked out from the molar mass of the structure shown.

Assays:
Type in all cases: biochemical
[1] = biological target: Apis (Apis mellifera, UniProt P00630)
[2] = biological target: T1, LOX 15HRC (Lipoxygenase 15hrc); test: enzyme inhibition, Cayman kit; conditions: per manufacturer's instructions
T1 construct: gene ALOX15; commercial, Cayman Chemical
Description: enzyme inhibition, Cayman kit on LOX 15HRC (Lipoxygenase 15hrc)

[3] = biological target: T2, HGVPLA2 (human group V PLA2) (Homo sapiens, UniProt P39877); test: enzyme inhibition, Cayman kit
T2 construct: gene PLA2G5; commercial assay, Cayman Chemical
T2 sequence (P39877 21-138): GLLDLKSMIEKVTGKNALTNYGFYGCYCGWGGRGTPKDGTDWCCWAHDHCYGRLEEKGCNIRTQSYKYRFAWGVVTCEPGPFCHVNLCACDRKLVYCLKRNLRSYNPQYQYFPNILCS
Description: enzyme inhibition, Cayman kit on HGVPLA2 (human group V PLA2)

[4] = biological target: T3, COX-2 (cyclooxygenase-2); test: enzyme inhibition, Cayman kit; conditions: per manufacturer's instructions
T3 construct: gene PTGS2; commercial, Cayman Chemical
Description: enzyme inhibition, Cayman kit on COX-2 (cyclooxygenase-2)

[5] = biological target: T4, BPPLA2 (bovine pancreas PLA2) (Bos taurus, UniProt P00593); test: enzyme inhibition, Cayman kit
T4 construct: gene PLA2G1B; native pancreatic enzyme, purchased from Sigma-Aldrich
Description: enzyme inhibition, Cayman kit on BPPLA2 (bovine pancreas PLA2)

Apis, sequence (P00630 34-167 limits assumed): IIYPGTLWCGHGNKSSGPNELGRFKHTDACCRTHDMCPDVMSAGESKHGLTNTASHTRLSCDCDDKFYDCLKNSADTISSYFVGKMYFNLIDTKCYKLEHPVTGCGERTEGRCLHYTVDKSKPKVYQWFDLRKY
T4 sequence (P00593 23-145): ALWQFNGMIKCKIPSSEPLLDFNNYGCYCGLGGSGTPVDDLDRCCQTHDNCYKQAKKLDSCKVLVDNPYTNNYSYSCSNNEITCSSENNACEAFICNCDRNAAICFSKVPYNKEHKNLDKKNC

| SMILES | hydrolysis, A425 [1] | IC50 [2] | pIC50 [3] | IC50 [4] | pIC50 [5] |
| --- | --- | --- | --- | --- | --- |
| CCCCCCCC(=O)Oc1cc(C(=O)O)ccc1[N+](=O)[O-] [4-nitro-3-octanoyloxy-benzoic acid] | as a direct result of the cleavage of the synthetic substrate | – | – | – | – |
| CC1(C)Oc2cc3occ(-c4ccc5c(c4)OCO5)c(=O)c3c(O)c2C[C@H]1O [harpalycin 2] | – | 55.96 µg/mL (≈ 146 µM) | 4.14 | 32.73 µg/mL (≈ 85.6 µM) | 4.51 |
